Results taken from ChEMBL document CHEMBL4706559, “New indolylarylsulfone non-nucleoside reverse transcriptase inhibitors show low nanomolar inhibition of single and double HIV-1 mutant strains” (Eur J Med Chem, 2020).

What was measured:
[1] = Cytotoxicity against human MT-4 cells assessed as reduction in cell viability by MTT assay; type: cell-based, MT4
[2] = system: Human immunodeficiency virus 1; test: Antiviral activity against HIV1 harboring RT Y181C mutant infected in human MT4 cells assessed as protection against virus-induced cytopathic effect by MTT assay; type: functional, organism-based; settings: Human immunodeficiency virus 1, MT4
[3] = system: Human immunodeficiency virus 1; test: Antiviral activity against HIV1 harboring RT Y188L mutant infected in human MT4 cells assessed as protection against virus-induced cytopathic effect by MTT assay; type: functional, organism-based; settings: Human immunodeficiency virus 1, MT4
[4] = system: Human immunodeficiency virus 1; test: Resistance index, ratio of EC50 for antiviral activity against HIV1 harboring RT K103N/Y181C double mutant infected in human MT4 cells to EC50 for antiviral activity against HIV1 NL4-3 infected in human MT4 cells; type: functional
[5] = Inhibition of RNA-dependent DNA polymerase activity of recombinant HIV-1 p66/p51 reverse transcriptase Y188L mutant assessed as inhibition of [3H]dTTP incorporation using poly(rA)/oligo(dT) as templates incubated for 15 mins by MicroBeta scintillation counting method; design: species or system Human immunodeficiency virus 1
[6] = Inhibition of RNA-dependent DNA polymerase activity of recombinant HIV-1 p66/p51 reverse transcriptase K103N/Y181C mutant assessed as inhibition of [3H]dTTP incorporation using poly(rA)/oligo(dT) as templates incubated for 15 mins by MicroBeta scintillation counting method; design: species or system Human immunodeficiency virus 1
[7] = molecular target: Human immunodeficiency virus type 1 reverse transcriptase (Human immunodeficiency virus 1) (UniProt Q72547); test: Inhibition of wild type HIV1 p66/p51 reverse transcriptase assessed as apparent Vmax at 37.5 nM using 10 to 500 uM poly(rA)/oligo(dT) as templates in presence of fixed concentration of [3H]dTTP by Michaelis-Menten analysis (reference value: 10 +/- 0.5%)
[8] = system: Human immunodeficiency virus 1; test: Inhibition of HIV1 p66/p51 reverse transcriptase K103N/Y181C double mutant assessed as apparent Vmax at 75 nM using 10 to 500 uM poly(rA)/oligo(dT) as templates in presence of fixed concentration of [3H]dTTP by Michaelis-Menten analysis (reference value: 12 +/- 1%)
[9] = molecular target: Human immunodeficiency virus type 1 reverse transcriptase (Human immunodeficiency virus 1) (UniProt Q72547); test: Inhibition of wild type HIV1 p66/p51 reverse transcriptase assessed as apparent Vmax at 225 nM using fixed concentration of poly(rA)/oligo(dT) as templates in presence of 2 to 100 uM of [3H]dTTP by Michaelis-Menten analysis (reference value: 9.7 +/- 12%)
[10] = system: Human immunodeficiency virus 1; test: Inhibition of HIV1 p66/p51 reverse transcriptase K103N/Y181C double mutant assessed as apparent Vmax at 150 nM using fixed concentration of poly(rA)/oligo(dT) as templates in presence of 2 to 100 uM of [3H]dTTP by Michaelis-Menten analysis (reference value: 9.6 +/- 0.4%)
[11] = system: Human immunodeficiency virus 1; test: Inhibition of HIV1 p66/p51 reverse transcriptase K103N/Y181C double mutant assessed as apparent Vmax at 300 nM using fixed concentration of poly(rA)/oligo(dT) as templates in presence of 2 to 100 uM of [3H]dTTP by Michaelis-Menten analysis (reference value: 9.6 +/- 0.4%)
[12] = system: Human immunodeficiency virus 1; test: Inhibition of HIV1 p66/p51 reverse transcriptase K103N/Y181C double mutant assessed as apparent Km of substrate at 150 nM using fixed concentration of poly(rA)/oligo(dT) as templates in presence of 2 to 100 uM of [3H]dTTP by Michaelis-Menten analysis (reference value: 9.2 +/- 1.4 uM)
[13] = molecular target: T1, Human immunodeficiency virus type 1 reverse transcriptase (Human immunodeficiency virus 1, UniProt Q72547); test: Binding affinity to wild type HIV-1 p66/p51 reverse transcriptase/nucleic acid binary complex using poly(rA)/oligo(dT) as templates in presence of [3H]dTTP
[14] = molecular target: T1, Human immunodeficiency virus type 1 reverse transcriptase; test: Binding affinity to wild type HIV-1 p66/p51 reverse transcriptase/nucleic acid/dTTP ternary complex using poly(rA)/oligo(dT) as templates in presence of [3H]dTTP
[15] = Binding affinity to free form of HIV-1 p66/p51 reverse transcriptase K103N/Y181C double mutant using poly(rA)/oligo(dT) as templates in presence of [3H]dTTP; design: species or system Human immunodeficiency virus 1
[16] = molecular target: Human immunodeficiency virus type 1 reverse transcriptase (Human immunodeficiency virus 1) (UniProt Q72547); test: Binding affinity to free form of wild type HIV-1 p66/p51 reverse transcriptase assessed as association constant using poly(rA)/oligo(dT) as templates in presence of [3H]dTTP
[17] = system: Human immunodeficiency virus 1; test: Binding affinity to free form of HIV-1 p66/p51 reverse transcriptase K103N/Y181C double mutant assessed as association constant using poly(rA)/oligo(dT) as templates in presence of [3H]dTTP
[18] = molecular target: Human immunodeficiency virus type 1 reverse transcriptase (Human immunodeficiency virus 1) (UniProt Q72547); test: Binding affinity to wild type HIV-1 p66/p51 reverse transcriptase/nucleic acid binary complex assessed as dissociation constant using poly(rA)/oligo(dT) as templates in presence of [3H]dTTP
[19] = system: Human immunodeficiency virus 1; test: Binding affinity to HIV-1 p66/p51 reverse transcriptase K103N/Y181C double mutant/nucleic acid/dTTP ternary complex assessed as dissociation constant using poly(rA)/oligo(dT) as templates in presence of [3H]dTTP
[20] = system: Human immunodeficiency virus 1; test: Synergistic inhibition of HIV-1 p66/p51 reverse transcriptase K103N/Y181C double mutant assessed as combination index using poly(rA)/oligo(dT) as templates in presence of [3H]dTTP preincubated enzyme with nucleic acid followed by addition of AZTTP and subsequent incubation with compound and dTTP
[21] = molecular target: Human immunodeficiency virus type 1 reverse transcriptase (Human immunodeficiency virus 1) (UniProt Q72547); test: Ratio of Kon of wild type HIV-1 p66/p51 reverse transcriptase/nucleic acid binary complex to Kon of wild type HIV-1 p66/p51 reverse transcriptase/nucleic acid/dTTP ternary complex using poly(rA)/oligo(dT) as templates in presence of [3H]dTTP
[22] = molecular target: Human immunodeficiency virus type 1 reverse transcriptase (Human immunodeficiency virus 1) (UniProt Q72547); test: Ratio of Koff of wild type HIV-1 p66/p51 reverse transcriptase/nucleic acid binary complex to Koff of wild type HIV-1 p66/p51 reverse transcriptase/nucleic acid/dTTP ternary complex using poly(rA)/oligo(dT) as templates in presence of [3H]dTTP
[23] = system: Human immunodeficiency virus 1; test: Ratio of Kon of HIV-1 p66/p51 reverse transcriptase K103N/Y181C double mutant/nucleic acid/dTTP ternary complex to Kon of free form of HIV-1 p66/p51 reverse transcriptase using poly(rA)/oligo(dT) as templates in presence of [3H]dTTP
[24] = system: Human immunodeficiency virus 1; test: Ratio of Kon of HIV-1 p66/p51 reverse transcriptase K103N/Y181C double mutant/nucleic acid/dTTP ternary complex to Kon of HIV-1 p66/p51 reverse transcriptase/nucleic acid binary complex using poly(rA)/oligo(dT) as templates in presence of [3H]dTTP
[25] = system: Human immunodeficiency virus 1; test: Antiviral activity against wild type HIV-1 P1 infected in human C8166 cells assessed as reduction in viral RNA production at 25 nM; type: functional; settings: Human immunodeficiency virus 1, P1, C8166
[26] = system: Human immunodeficiency virus 1; test: Antiviral activity against wild type HIV-1 P1 infected in human C8166 cells assessed as reduction in viral p24 antigen production at 25 nM; type: functional; settings: Human immunodeficiency virus 1, P1, C8166

Cc1cc(C)cc(S(=O)(=O)c2c(C(=O)NCc3ccccc3O)[nH]c3ccc(Cl)cc23)c1
CC50 [1]: 23800 nM
EC50 [2]: < 0.7 nM
EC50 [3]: 21.3 nM
Ratio EC50 [4]: >8.8
IC50 [5]: 61 nM
IC50 [6]: 76 nM
Vmax(app) [7]: 4.9%
Vmax(app) [8]: 7.7%
Vmax(app) [9]: 0.9%
Vmax(app) [10]: 2.9%
Vmax(app) [11]: 1.5%
Km [12]: 2.2 µM
Ki [13]: 36 nM
Ki [14]: 28 nM
Ki [15]: 137 nM
K [16]: 13 10^-5/nM/s
K [17]: 10 10^-5/nM/s
K [18]: 35 10^-3/s
K [19]: 33 10^-3/s
CI [20]: 0.6
Ratio [21]: 7
Ratio [22]: 8
Ratio [23]: 4
Ratio [24]: 4
inhibition at 0.025 µM [25]: 100%
inhibition at 0.025 µM [26]: 100%
